Results published in publication PMC4965013, “Open Source Drug Discovery with the Malaria Box Compound Collection for Neglected Diseases and Beyond” (PLoS Pathogens, 2016).

Key:
[1] = system: P. falciparum 3D7 trophozoites; assay: Metabolomic fingerprint profiling LC-MS; assay type: cell-based, Plasmodium falciparum; design: UDP-D-glucose / ADP-D-glucose: unit not given here; settings: for Acetyllysine / N-acetyl-L-ornithine / N-carbamoyl-L-aspartate / NADPH / dAMP / dCMP / dTDP / dTMP / dTTP / dihydroorotate / orotate / DLH / DLS/SDL/SID / PD / PEE / PVNF / 3-phosphoglycerate / ADP-D-glucose / ATP / CDP / D-sedoheptulose-1/7-phosphate / FAD / GMP / NAD+ / NADP+ / Octoluse Bisphosphate / Pyroglutamic acid / UDP-D-glucose / UDP-D-glucuronate / UDP-N-acetyl-glucosamine / UDP / UMP / UTP / a-ketoglutarate / citrate/isocitrate / cytidine / dATP / dGMP/AMP / fumarate / glucose-1/6-phosphate / glycerate / guanine / guanosine / hypoxanthine / indole / inosine / nicotinate / ornithine / phosphoenolpyruvate / pyruvate / ribose-phosphate / sarcosine/alanine / sn-glycerol-3-phosphate / succinate/methylmalonic acid / uridine / xanthosine: S2 Table Metabolomics; for Acetyllysine: metabolite Acetyllysine; for N-acetyl-L-ornithine: metabolite N-acetyl-L-ornithine; for N-carbamoyl-L-aspartate: metabolite N-carbamoyl-L-aspartate; for NADPH: metabolite NADPH; for dAMP: metabolite dAMP; for dCMP: metabolite dCMP; for dTDP: metabolite dTDP; for dTMP: metabolite dTMP; for dTTP: metabolite dTTP; for dihydroorotate: metabolite dihydroorotate; for orotate: metabolite orotate; for DLH: peptide DLH; for DLS/SDL/SID: peptide DLS/SDL/SID; for PD: peptide PD; for PEE: peptide PEE; for PVNF: peptide PVNF; for 3-phosphoglycerate: metabolite 3-phosphoglycerate; for ADP-D-glucose: metabolite ADP-D-glucose; for ATP: metabolite ATP; for CDP: metabolite CDP; for CDP / D-sedoheptulose-1/7-phosphate / GMP / Octoluse Bisphosphate / UDP / UMP / UTP / citrate/isocitrate / dGMP/AMP / fumarate / glucose-1/6-phosphate / glycerate / guanine / guanosine / inosine / pyruvate / sarcosine/alanine / succinate/methylmalonic acid / uridine / xanthosine: change in metabolite level after compound treatment; for D-sedoheptulose-1/7-phosphate: metabolite D-sedoheptulose-1/7-phosphate; for FAD: metabolite FAD; for GMP: metabolite GMP; for NAD+: metabolite NAD+; for NADP+: metabolite NADP+; for Octoluse Bisphosphate: metabolite Octoluse Bisphosphate; for Pyroglutamic acid: metabolite Pyroglutamic acid; for UDP-D-glucose: metabolite UDP-D-glucose; for UDP-D-glucuronate: metabolite UDP-D-glucuronate; for UDP-N-acetyl-glucosamine: metabolite UDP-N-acetyl-glucosamine; for UDP: metabolite UDP; for UMP: metabolite UMP; for UTP: metabolite UTP; for a-ketoglutarate: metabolite a-ketoglutarate; for citrate/isocitrate: metabolite citrate/isocitrate; for cytidine: metabolite cytidine; for dATP: metabolite dATP; for dGMP/AMP: metabolite dGMP/AMP; for fumarate: metabolite fumarate; for glucose-1/6-phosphate: metabolite glucose-1/6-phosphate; for glycerate: metabolite glycerate; for guanine: metabolite guanine; for guanosine: metabolite guanosine; for hypoxanthine: metabolite hypoxanthine; for indole: metabolite indole; for inosine: metabolite inosine; for 2_3-Diphosphoglyceric acid / 4-phosphopantothenate / 6-phospho-D-gluconate / FMN / IMP / Pyrophosphate / Sedoheptoluse bisphosphate / cyclic-AMP / glutathione disulfide / lactate / myo-inositol: metabolite level change after treatment; for nicotinate: metabolite nicotinate; for ornithine: metabolite ornithine; for phosphoenolpyruvate: metabolite phosphoenolpyruvate; for pyruvate: metabolite pyruvate; for ribose-phosphate: metabolite ribose-phosphate; for sarcosine/alanine: metabolite sarcosine/alanine; for sn-glycerol-3-phosphate: metabolite sn-glycerol-3-phosphate; for succinate/methylmalonic acid: metabolite succinate/methylmalonic acid; for uridine: metabolite uridine; for xanthosine: metabolite xanthosine
P. falciparum = assay: EC50 listed in S2 Table Metabolomics (used to set the concentration tested); assay type: cell-based; settings: Plasmodium falciparum; EC50 used for Factor_XEC50 in metabolomics; read-out: EC50_nM
[2] = system: P. falciparum M1 aminopeptidase; design: method as in ref [23] (a number printed in a supplementary file, which may have a reference list of its own: not looked up in the article's list); settings: ref [23]; cited from earlier work
[3] = system: P. falciparum M17 aminopeptidase; design: method as in ref [23] (a number printed in a supplementary file, which may have a reference list of its own: not looked up in the article's list); settings: ref [23]; cited from earlier work
Atg8-Atg3 = system: Atg8-Atg3; design: method as in ref [38] (a number printed in a supplementary file, which may have a reference list of its own: not looked up in the article's list); settings: ref [38]; cited from earlier work
T. cruzi Tulahuen = settings: ref [84]; read-out: Trypanosoma cruzi Tulahuen intracellular amastigotes in MRC5 cell line EC50; cited from earlier work
[4] = system: PfCDPK1, PfPK6, PfCK2, PfGSK3, PfCLK1, Pfmap2, PfPK7, PfNek2, PfNek4, FIKK4.2, FIKK10.2, PfCK1, PfPK5; assay: Thermal Shift Assay on recombinant Pf kinases; assay type: binding, P. falciparum; settings: 2 µM kinase, 5 molar excess of compound

c1ccc(Cn2c(N=Nc3c(Nc4ccccc4)ccc4ccccc34)nc3ccccc32)cc1 [MMV666023]
Acetyllysine [1]: 0.5853 | N-acetyl-L-ornithine [1]: 0.306 | N-carbamoyl-L-aspartate [1]: 1.052 | NADPH [1]: -0.03386 | dAMP [1]: 0.6013 | dCMP [1]: -0.4205 | dTDP [1]: 0.3507 | dTMP [1]: 0.8714 | dTTP [1]: -0.2342 | dihydroorotate [1]: 1.31 | orotate [1]: -0.6227 | DLH [1]: -0.403 | DLS/SDL/SID [1]: -0.4178 | PD [1]: 0.5075 | PEE [1]: 0.08891 | PVNF [1]: -0.6731 | 3-phosphoglycerate [1]: 0.03204 | ADP-D-glucose [1]: -0.0135 | ATP [1]: -0.2499 | CDP [1]: 0.1136 | D-sedoheptulose-1/7-phosphate [1]: 0.2353 | FAD [1]: 0.06401 | GMP [1]: -0.6431 | NAD+ [1]: 0.6404 | NADP+ [1]: -0.009365 | Octoluse Bisphosphate [1]: -0.1419 | Pyroglutamic acid [1]: -0.07348 | UDP-D-glucose [1]: 0.05216 | UDP-D-glucuronate [1]: -0.02666 | UDP-N-acetyl-glucosamine [1]: 0.05509 | UDP [1]: 0.01697 | UMP [1]: -0.4292 | UTP [1]: -0.424 | a-ketoglutarate [1]: -0.06383 | citrate/isocitrate [1]: 0.04119 | cytidine [1]: 0.02473 | dATP [1]: 0.1105 | dGMP/AMP [1]: 0.2165 | fumarate [1]: 0.9246 | glucose-1/6-phosphate [1]: -0.4138 | glycerate [1]: 0.03697 | guanine [1]: -0.03399 | guanosine [1]: -0.2347 | hypoxanthine [1]: -0.04929 | indole [1]: 0.02614 | inosine [1]: -0.0248 | 2_3-Diphosphoglyceric acid [1]: 0.0759 | 4-phosphopantothenate [1]: 0.08574 | 6-phospho-D-gluconate [1]: 0.115 | FMN [1]: -0.1537 | IMP [1]: 0.4441 | Pyrophosphate [1]: 0.2082 | Sedoheptoluse bisphosphate [1]: 0.1996 | cyclic-AMP [1]: 0.01699 | glutathione disulfide [1]: 0.1273 | lactate [1]: -0.7178 | myo-inositol [1]: -0.07069 | nicotinate [1]: 0.08369 | ornithine [1]: 0.4536 | phosphoenolpyruvate [1]: -0.0645 | pyruvate [1]: -0.159 | ribose-phosphate [1]: -0.0332 | sarcosine/alanine [1]: -0.02978 | sn-glycerol-3-phosphate [1]: -0.2072 | succinate/methylmalonic acid [1]: 0.009689 | uridine [1]: -0.07701 | xanthosine [1]: -0.07995 | EC50 (P. falciparum): 36.8 nM | inhibition of M1 in words [2]: moderate competitive inhibitors | inhibition of M17 in words [3]: moderate competitive inhibitors

Cc1ccc(Nc2nc(-c3ccccn3)cs2)cc1 [MMV007907]
PPI inhibitors of Atg8-Atg3 interaction (Atg8-Atg3): PPI inhibitors | EC50 (T. cruzi Tulahuen): 281 nM | Acetyllysine [1]: -0.3916 | N-acetyl-L-ornithine [1]: -0.2705 | N-carbamoyl-L-aspartate [1]: 0.4477 | NADPH [1]: 1.503 | dAMP [1]: -0.05008 | dCMP [1]: -0.3338 | dTDP [1]: -0.4245 | dTMP [1]: -0.5337 | dTTP [1]: 0.04887 | dihydroorotate [1]: 0.6541 | orotate [1]: 0.3803 | DLH [1]: -0.1443 | DLS/SDL/SID [1]: -0.03559 | PD [1]: -0.7075 | PEE [1]: -0.4235 | PVNF [1]: 0.2287 | 3-phosphoglycerate [1]: 0.2283 | ADP-D-glucose [1]: 0.03116 | ATP [1]: 0.08371 | CDP [1]: -0.4596 | D-sedoheptulose-1/7-phosphate [1]: -0.2275 | FAD [1]: 0.1798 | GMP [1]: 0.08425 | NAD+ [1]: 0.05427 | NADP+ [1]: -0.07684 | Octoluse Bisphosphate [1]: -0.09051 | Pyroglutamic acid [1]: 0.2079 | UDP-D-glucose [1]: -0.006173 | UDP-D-glucuronate [1]: 0.1137 | UDP-N-acetyl-glucosamine [1]: 0.001514 | UDP [1]: -0.4364 | UMP [1]: -0.7518 | UTP [1]: 0.01959 | a-ketoglutarate [1]: 0.135 | citrate/isocitrate [1]: 0.264 | cytidine [1]: 0.5859 | dATP [1]: -0.01819 | dGMP/AMP [1]: -0.2513 | fumarate [1]: -0.275 | glucose-1/6-phosphate [1]: -0.0724 | glycerate [1]: 0.1576 | guanine [1]: 0.3676 | guanosine [1]: 0.05893 | hypoxanthine [1]: 0.3977 | indole [1]: 0.3227 | inosine [1]: 0.344 | 2_3-Diphosphoglyceric acid [1]: -0.02223 | 4-phosphopantothenate [1]: 0.1153 | 6-phospho-D-gluconate [1]: 0.05128 | FMN [1]: 0.1654 | IMP [1]: -0.204 | Pyrophosphate [1]: 0.1304 | Sedoheptoluse bisphosphate [1]: -0.1099 | cyclic-AMP [1]: 0.1921 | glutathione disulfide [1]: -0.02789 | lactate [1]: 0.5292 | myo-inositol [1]: 0.004909 | nicotinate [1]: 0.3366 | ornithine [1]: 0.4059 | phosphoenolpyruvate [1]: 0.0562 | pyruvate [1]: 0.2612 | ribose-phosphate [1]: -0.06101 | sarcosine/alanine [1]: 0.3466 | sn-glycerol-3-phosphate [1]: 0.2394 | succinate/methylmalonic acid [1]: 0.03717 | uridine [1]: 0.4023 | xanthosine [1]: -0.2403 | EC50 (P. falciparum): 350 nM

Cc1cccc(-n2ncc3c(=O)[nH]c(-n4nc(C)cc4NC(=O)c4cc5ccccc5o4)nc32)c1 [MMV403679]
thermal shift (ΔTm) [4]: approximately 2 °C

O=C(Nc1ccc(Cl)c(Cl)c1)Nc1ccc(Cl)c(Cl)c1 [MMV665852]
thermal shift (ΔTm) [4]: approximately 2 °C

COc1cc(-c2nc(-c3ccccc3)c(-c3ccccc3)[nH]2)cc(OC)c1O [MMV020750]
inhibition of M1 in words [2]: moderate competitive inhibitors | inhibition of M17 in words [3]: moderate competitive inhibitors
